The supplement of paper PMC9663587

Legend:
[1] = compound: CN(C)C/C=C/C(=O)Nc1ccc(C(=O)Nc2cccc(Nc3ncc(Cl)c(-c4c[nH]c5ccccc45)n3)c2)cc1 [THZ1]; assay: GR value, 72 h; higher = faster growth (1 = untreated, <0 = killing);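 note: breast cancer and non-malignant breast epithelial lines, nine half-log doses, viable cells counted by Hoechst and LIVE/DEAD dye imaging versus time-zero plates and DMSO controls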
[2] = compound: CCc1cnn2c(NCc3ccc[n+]([O-])c3)cc(N3CCCC[C@H]3CCO)nc12; assay: as above
[3] = compound: CCN1CCN(Cc2ccc(Nc3ncc(F)c(-c4cc(F)c5nc(C)n(C(C)C)c5c4)n3)nc2)CC1; assay: as above
[4] = compound: T1, CC(=O)c1c(C)c2cnc(Nc3ccc(N4CCN(CCOCCOCCOCCNC(=O)COc5cccc6c5C(=O)N(C5CCC(=O)NC5=O)C6=O)CC4)cn3)nc2n(C2CCCC2)c1=O [BSJ-03-123]; assay: as above
[5] = compound: C=CC(=O)Nc1ccc(C(=O)Nc2[nH]nc3c2CN(C(=O)N[C@H](CN(C)C)c2ccccc2)C3(C)C)cc1 [YKL-5-124]; assay: as above
[6] = compound: CN(C)C/C=C/C(=O)Nc1ccc(C(=O)N2CCC[C@@H](Nc3ncc(Cl)c(-c4c[nH]c5ccccc45)n3)C2)cc1 [THZ531]; assay: as above
[7] = compound: CN(C)C(=O)c1cc2cnc(Nc3ccc(N4CCNCC4)cn3)nc2n1C1CCCC1 [LEE011/Ribociclib]; assay: as above
[8] = compound: T2, CN1CC[C@H](c2c(O)cc(O)c3c(=O)cc(-c4ccccc4Cl)oc23)[C@H](O)C1 [Flavopiridol]; assay: as above
[9] = compound: CC(C)Nc1cc(-c2c[nH]c(C(=O)N[C@H](CO)c3cccc(Cl)c3)c2)c(Cl)cn1 [BVD523]
[10] = compound: C1=CC2=C(C=CC(=C2)C=C3C(=O)NC(=NCC4=CC=CS4)S3)N=C1 [R0-3306]
[11] = compound: CC(=O)O[C@H]1C(=O)[C@@]2(C)[C@H]([C@H](OC(=O)c3ccccc3)[C@]3(O)C[C@H](OC(=O)[C@H](O)[C@@H](NC(=O)c4ccccc4)c4ccccc4)C(C)=C1C3(C)C)[C@]1(OC(C)=O)CO[C@@H]1C[C@@H]2O [Paclitaxel]
[12] = compound: CCC1=CN=CN=C1N2CCN(CC2)CC3=NC4=C(N3)C=C(C=C4)C(F)(F)F
[13] = compound: T1, BSJ-03-123
[14] = compound: NC1(C(=O)N[C@@H](CCO)c2ccc(Cl)cc2)CCN(c2nc[nH]c3nccc2-3)CC1 [AZD5363]
[15] = compound: CO[C@@H](C)Cn1c(=O)n(C)c2cnc3ccc(-c4cncc(C(C)(C)O)c4)cc3c21
[16] = compound: CCOc1cc2ncc(C#N)c(Nc3ccc(OCc4ccccn4)c(Cl)c3)c2cc1NC(=O)/C=C/CN(C)C [Neratinib/HKI272]
[17] = compound: T2, Flavopiridol
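Throughout, for GR50, 72 h: breast cancer and non-malignant breast epithelial cell lines, Deep Dye Drop or Dye Drop imaging, nine half-log doses, GR normalized to time-zero plates and DMSO-only controls.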

Cell Line: MDAMB231
- GR value ([1]; 0.0001 µM): 1.02 GR
- GR value ([1]; 0.0003162 µM): 0.992 GR
- GR value ([1]; 0.001 µM): 0.993 GR
- GR value ([1]; 0.003162 µM): 1.03 GR
- GR value ([1]; 0.01 µM): 0.972 GR
- GR value ([1]; 0.03162 µM): 0.701 GR
- GR value ([1]; 0.1 µM): 0.26 GR
- GR value ([1]; 0.3162 µM): -0.0565 GR
- GR value ([1]; 1 µM): -0.5 GR
- GR value ([2]; 0.0001 µM): 0.921 GR
- GR value ([2]; 0.0003162 µM): 0.995 GR
- GR value ([2]; 0.001 µM): 0.966 GR
- GR value ([2]; 0.003162 µM): 0.93 GR
- GR value ([2]; 0.01 µM): 0.51 GR
- GR value ([2]; 0.03162 µM): -0.288 GR
- GR value ([2]; 0.1 µM): -0.361 GR
- GR value ([2]; 0.3162 µM): -0.372 GR
- GR value ([2]; 1 µM): -0.426 GR
- GR value ([3]; 0.001 µM): 0.942 GR
- GR value ([3]; 0.003162 µM): 0.859 GR
- GR value ([3]; 0.01 µM): 0.699 GR
- GR value ([3]; 0.03162 µM): 0.513 GR
- GR value ([3]; 0.1 µM): 0.289 GR
- GR value ([3]; 0.3162 µM): 0.169 GR
- GR value ([3]; 1 µM): 0.0774 GR
- GR value ([3]; 3.162 µM): -0.187 GR
- GR value ([3]; 10 µM): -0.492 GR
- GR value ([4]; 0.001 µM): 0.926 GR
- GR value ([4]; 0.003162 µM): 0.889 GR
- GR value ([4]; 0.01 µM): 0.828 GR
- GR value ([4]; 0.03162 µM): 0.779 GR
- GR value ([4]; 0.1 µM): 0.69 GR
- GR value ([4]; 0.3162 µM): 0.644 GR
- GR value ([4]; 1 µM): 0.466 GR
- GR value ([4]; 3.162 µM): 0.478 GR
- GR value ([4]; 10 µM): -0.156 GR
- GR value ([5]; 0.001 µM): 0.388 GR
- GR value ([5]; 0.003162 µM): 0.284 GR
- GR value ([5]; 0.01 µM): 0.2 GR
- GR value ([5]; 0.03162 µM): 0.144 GR
- GR value ([5]; 0.1 µM): 0.101 GR
- GR value ([5]; 0.3162 µM): 0.0485 GR
- GR value ([5]; 1 µM): 0.0611 GR
- GR value ([5]; 3.162 µM): 0.0322 GR
- GR value ([5]; 10 µM): -0.182 GR
- GR value ([6]; 0.0001 µM): 1.03 GR
- GR value ([6]; 0.0003162 µM): 0.974 GR
- GR value ([6]; 0.001 µM): 0.936 GR
- GR value ([6]; 0.003162 µM): 1.02 GR
- GR value ([6]; 0.01 µM): 0.939 GR
- GR value ([6]; 0.03162 µM): 0.975 GR
- GR value ([6]; 0.1 µM): 0.751 GR
- GR value ([6]; 0.3162 µM): 0.443 GR
- GR value ([6]; 1 µM): -0.275 GR
- GR value ([7]; 0.001 µM): 0.792 GR
- GR value ([7]; 0.003162 µM): 0.835 GR
- GR value ([7]; 0.01 µM): 0.747 GR
- GR value ([7]; 0.03162 µM): 0.762 GR
- GR value ([7]; 0.1 µM): 0.673 GR
- GR value ([7]; 0.3162 µM): 0.617 GR
- GR value ([7]; 1 µM): 0.569 GR
- GR value ([7]; 3.162 µM): 0.466 GR
- GR value ([7]; 10 µM): 0.215 GR
- GR value ([8]; 0.0001 µM): 1.02 GR
- GR value ([8]; 0.0003162 µM): 1.03 GR
- GR value ([8]; 0.001 µM): 1 GR
- GR value ([8]; 0.003162 µM): 0.886 GR
- GR value ([8]; 0.01 µM): 0.858 GR
- GR value ([8]; 0.03162 µM): 0.866 GR
- GR value ([8]; 0.1 µM): 0.656 GR
- GR value ([8]; 0.3162 µM): 0.152 GR
- GR value ([8]; 1 µM): -0.434 GR
- GR50, 72 h [9]: 1.13 µM
- GR50, 72 h [10]: 8.73 µM
- GR50, 72 h [11]: 0.00232 µM
- GR50, 72 h [12]: > 10 µM
- GR50, 72 h [13]: 0.731 µM
- GR50, 72 h [14]: > 10 µM
- GR50, 72 h [15]: 0.031 µM
- GR50, 72 h [16]: 1.43 µM
- GR50, 72 h [17]: 0.139 µM
